Assay results as given in ChEMBL document CHEMBL1909294, “Translating clinical findings into knowledge in drug safety evaluation--drug induced liver injury prediction system (DILIps)” (PLoS Comput Biol, 2011).

Columns and labels:
[1] = tested on: Hepatotoxicity;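 for HepSE Combined Scores: combined hepatic side effect score as listed in the training data of the Drug Induced Liver Injury Prediction System (DILIps)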;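 for HepSE cholecystitis: Cholecystitis-related hepatic side effect score drawn from the DILIps (drug-induced liver injury prediction) training data set; call rule not given here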; for HepSE hepatic failure: call rule not given here;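 for HepSE hepatic necrosis: score of hepatic side effects for hepatic necrosis, drawn from the training data of DILIps, a prediction system for drug-induced liver injury; call rule not given here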;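 for HepSE jaundice: Jaundice-related hepatic side-effect score drawn from the training data of the DILIps (drug-induced liver injury prediction system); call rule not given here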;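 for HepSE liver fatty: hepatic side effect score for fatty liver, taken from the DILIps training set for predicting drug-induced liver injury; call rule not given here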;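 for HepSE liver function tests abnormal: hepatic side effect score taken from the DILIps (drug-induced liver injury prediction system) training data, here covering abnormal liver function test findings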
[2] = tested on: Hepatotoxicity; remark: listed apart in the source;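 for HepSE Combined Scores: combined hepatic side effect score as listed in the training data of the Drug Induced Liver Injury Prediction System (DILIps)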;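 for HepSE cholecystitis: Cholecystitis-related hepatic side effect score drawn from the DILIps (drug-induced liver injury prediction) training data set; call rule not given here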; for HepSE hepatic failure: call rule not given here;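 for HepSE hepatic necrosis: score of hepatic side effects for hepatic necrosis, drawn from the training data of DILIps, a prediction system for drug-induced liver injury; call rule not given here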;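 for HepSE jaundice: Jaundice-related hepatic side-effect score drawn from the training data of the DILIps (drug-induced liver injury prediction system); call rule not given here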;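 for HepSE liver function tests abnormal: hepatic side effect score taken from the DILIps (drug-induced liver injury prediction system) training data, here covering abnormal liver function test findings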
[3] = tested on: Hepatotoxicity; remark: listed apart in the source;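 for HepSE Combined Scores: combined hepatic side effect score as listed in the training data of the Drug Induced Liver Injury Prediction System (DILIps)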;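 for HepSE cholecystitis: Cholecystitis-related hepatic side effect score drawn from the DILIps (drug-induced liver injury prediction) training data set; call rule not given here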; for HepSE hepatic failure: call rule not given here;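 for HepSE hepatic necrosis: score of hepatic side effects for hepatic necrosis, drawn from the training data of DILIps, a prediction system for drug-induced liver injury; call rule not given here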;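 for HepSE jaundice: Jaundice-related hepatic side-effect score drawn from the training data of the DILIps (drug-induced liver injury prediction system); call rule not given here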;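 for HepSE liver function tests abnormal: hepatic side effect score taken from the DILIps (drug-induced liver injury prediction system) training data, here covering abnormal liver function test findings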
[4] = tested on: Hepatotoxicity; remark: listed apart in the source;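 for HepSE Combined Scores: combined hepatic side effect score as listed in the training data of the Drug Induced Liver Injury Prediction System (DILIps)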;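 for HepSE cholecystitis: Cholecystitis-related hepatic side effect score drawn from the DILIps (drug-induced liver injury prediction) training data set; call rule not given here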; for HepSE hepatic failure: call rule not given here;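 for HepSE hepatic necrosis: score of hepatic side effects for hepatic necrosis, drawn from the training data of DILIps, a prediction system for drug-induced liver injury; call rule not given here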;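 for HepSE jaundice: Jaundice-related hepatic side-effect score drawn from the training data of the DILIps (drug-induced liver injury prediction system); call rule not given here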;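 for HepSE liver function tests abnormal: hepatic side effect score taken from the DILIps (drug-induced liver injury prediction system) training data, here covering abnormal liver function test findings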
[5] = tested on: Hepatotoxicity; remark: listed apart in the source; for HepSE hepatic failure: call rule not given here
[6] = tested on: Hepatotoxicity; remark: listed apart in the source; for HepSE hepatic failure: call rule not given here
[7] = tested on: Hepatotoxicity; remark: listed apart in the source
[8] = tested on: Hepatotoxicity; remark: listed apart in the source
[9] = tested on: Hepatotoxicity; remark: listed apart in the source
[10] = tested on: Hepatotoxicity; remark: listed apart in the source
[11] = tested on: Hepatotoxicity; remark: listed apart in the source
[12] = tested on: Hepatotoxicity; remark: listed apart in the source
[13] = tested on: Hepatotoxicity; remark: listed apart in the source
[14] = tested on: Hepatotoxicity; remark: listed apart in the source

Row | SMILES | HepSE_cholecystitis [1] | HepSE_hepatic necrosis [2] | HepSE_liver function tests abnormal [3] | HepSE_Combined Scores [4] | HepSE_jaundice [5] | HepSE_bilirubinemia [6] | HepSE_hepatic failure [7] | HepSE_liver fatty [8] | HepSE_elevated liver function tests [9] | HepSE_hepatomegaly [10] | HepSE_cirrhosis [11] | HepSE_hepatitis [12] | HepSE_cholelithiasis [13] | HepSE_liver disease [14]
1 | Cc1ccc(C(=O)c2ccc(CC(=O)O)n2C)cc1 [TOLMETIN] | 0 | 0 | 0 | 1 | 0 | 0 | 0 | 0 | 0 | 0 | 0 | 1 | 0 | 0
2 | CN(C)c1ccc(O)c2c1C[C@H]1C[C@H]3[C@H](N(C)C)C(O)=C(C(N)=O)C(=O)[C@@]3(O)C(O)=C1C2=O [MINOCYCLINE] | 0 | 0 | 0 | 4 | 1 | 1 | 1 | 0 | 0 | 0 | 0 | 1 | 0 | 0
3 | C1N2CN3CN1CN(C2)C3 [METHENAMINE] | 0 | 0 | 0 | 0 | 0 | 0 | 0 | 0 | 0 | 0 | 0 | 0 | 0 | 0
4 | CC1(C)S[C@@H]2[C@H](NC(=O)C(C(=O)Oc3ccc4c(c3)CCC4)c3ccccc3)C(=O)N2[C@H]1C(=O)[O-].[Na+] (some centres not stated) [CARBENICILLIN INDANYL SODIUM] | 0 | 0 | 0 | 0 | 0 | 0 | 0 | 0 | 0 | 0 | 0 | 0 | 0 | 0
5 | CC(=O)O.CCNC(=O)[C@@H]1CCCN1C(=O)[C@H](CCCNC(=N)N)NC(=O)[C@H](CC(C)C)NC(=O)[C@@H](CC(C)C)NC(=O)[C@H](Cc1ccc(O)cc1)NC(=O)[C@H](CO)NC(=O)[C@H](Cc1c[nH]c2ccccc12)NC(=O)[C@H](Cc1c[nH]cn1)NC(=O)[C@@H]1CCC(=O)N1 [LEUPROLIDE ACETATE] | 0 | 0 | 1 | 2 | 0 | 0 | 0 | 0 | 0 | 1 | 0 | 0 | 0 | 0
6 | CSCC[C@H](NC(=O)[C@H](Cc1ccc(OS(=O)(=O)O)cc1)NC(=O)[C@@H](N)CC(=O)O)C(=O)NCC(=O)N[C@@H](Cc1c[nH]c2ccccc12)C(=O)N[C@@H](CCSC)C(=O)N[C@@H](CC(=O)O)C(=O)N[C@@H](Cc1ccccc1)C(N)=O [SINCALIDE] | 0 | 0 | 0 | 0 | 0 | 0 | 0 | 0 | 0 | 0 | 0 | 0 | 0 | 0
7 | CC(N)Cc1ccccc1 (configuration not stated) [AMPHETAMINE] | 0 | 0 | 0 | 0 | 0 | 0 | 0 | 0 | 0 | 0 | 0 | 0 | 0 | 0
8 | CC(=O)[C@]1(O)Cc2c(O)c3c(c(O)c2[C@@H](O[C@H]2C[C@H](N)[C@H](O)[C@H](C)O2)C1)C(=O)c1ccccc1C3=O [IDARUBICIN] | 0 | 0 | 0 | 0 | 0 | 0 | 0 | 0 | 0 | 0 | 0 | 0 | 0 | 0
